Source: US9763454B2, “Composition comprising a biological control agent and a fungicide” (Bayer CropScience AG, priority 2012, dated 2017)

Legend:
[1] = tested on: Rhizoctonia solani; assay: Rhizoctonia test (cotton)/Drench; type: in vivo; conditions: greenhouse, 30 ml drench per pot, 7 days at 20° C., BioAct 4 × 10^11 cfu/seed, F70 1.2 mg ai/seed
Protocol: (§1) The test is performed under greenhouse conditions.
Perlite was incubated with mycelia of Rhizoctonia solani. Infected perlite was scattered in a 1:1 mix of steamed field soil and sand and was incubated in a dark box in greenhouse for 6 days. After soil incubation, cotton seeds were sown in 6*6 cm pots containing this soil mixture.
Compounds and compound combinations were suspended and diluted with water to the desired concentrations. 30 ml of compound or compound combination preparation were drenched on each pot. Pots were incubated in the greenhouse for 7 days at 20° C.
Assessment consisted of counting of emerged seedlings. 0% means an efficacy which corresponds to that of the untreated control, while an efficacy of 100% means that all seedlings have emerged.

[2] = tested on: cotton (variety Vicky) seedlings; assay: Hypocotyl growth enhancement (cotton)/Drench; type: in vivo; conditions: 7 days after sowing
Protocol: as §1
Five cotton (variety Vicky) seeds were sown in a 6*6 cm pot containing 1:1 mix of steamed field soil and sand. Compounds and compound combinations were suspended and diluted with water to the desired concentrations. Just after sowing, 30 ml of compound or compound combination preparation were drenched on each pot. The pots (three replications per treatment) were placed in randomized arrangement in the greenhouse and kept at 20° C. for 7 days.
Length of hypocotyls was measured at 7 days after sowing.

O=C(NCCc1ncc(C(F)(F)F)cc1Cl)c1ccccc1C(F)(F)F [F70 fluopyram, fluopyram]
Efficacy in % found (activity found; emerged seedlings) [1]: 0%
Seedling/hypocotyl length compared in words ([2]; drench): significantly higher than untreated
Hypocotyl (length, average of 15 seedlings) ([2]; greenhouse, 30 ml drench per pot, 20° C., BioAct 4 × 10^11 cfu/plant, F70 1.2 mg ai/plant, untreated 5.3): 5.9 cm
